Measurements: US20020019536A1, “NEW URETHANES, THIO AND DITHIO ANALOGUES AND THEIR USE AS INHIBITORS OF CHOLESTEROL BIOSYNTHESIS” (priority 1997, published 2002)
Converted amounts (≈) assume the structure as drawn.

Columns and labels:
[1] = system: 14C-acetate incorporation into the steroids which can be precipitated with digitonin (cholesterol biosynthesis); assay: Inhibition of 14C-acetate incorporation into the steroids which can be precipitated with digitonin; assay type: cell-based; conditions: for IC50: 14C-acetate incorporation
Source text: I. Measuring the Inhibition of ^14C-acetate incorporation into the steroids which can be precipitated with digitonin: The inhibitory effect was investigated using the method described in J. Lipid. Res. 37, 148-157 [1996] at test concentrations of 10^−8 and 10^−9 mol/l.

[2] = target: T1, 2,3-epoxysqualene-lanosterol-cyclase (Rattus norvegicus, UniProt P48450); assay: In-vivo activity in the rat after oral administration: 2,3-epoxysqualene level in the liver
T1 construct: Measuring the in-vivo Activity in the Rat after Oral Administration; from tissue; host or cells: living rat; 2,3-epoxysqualene measured in the liver
T1 sequence (P48450 1-733): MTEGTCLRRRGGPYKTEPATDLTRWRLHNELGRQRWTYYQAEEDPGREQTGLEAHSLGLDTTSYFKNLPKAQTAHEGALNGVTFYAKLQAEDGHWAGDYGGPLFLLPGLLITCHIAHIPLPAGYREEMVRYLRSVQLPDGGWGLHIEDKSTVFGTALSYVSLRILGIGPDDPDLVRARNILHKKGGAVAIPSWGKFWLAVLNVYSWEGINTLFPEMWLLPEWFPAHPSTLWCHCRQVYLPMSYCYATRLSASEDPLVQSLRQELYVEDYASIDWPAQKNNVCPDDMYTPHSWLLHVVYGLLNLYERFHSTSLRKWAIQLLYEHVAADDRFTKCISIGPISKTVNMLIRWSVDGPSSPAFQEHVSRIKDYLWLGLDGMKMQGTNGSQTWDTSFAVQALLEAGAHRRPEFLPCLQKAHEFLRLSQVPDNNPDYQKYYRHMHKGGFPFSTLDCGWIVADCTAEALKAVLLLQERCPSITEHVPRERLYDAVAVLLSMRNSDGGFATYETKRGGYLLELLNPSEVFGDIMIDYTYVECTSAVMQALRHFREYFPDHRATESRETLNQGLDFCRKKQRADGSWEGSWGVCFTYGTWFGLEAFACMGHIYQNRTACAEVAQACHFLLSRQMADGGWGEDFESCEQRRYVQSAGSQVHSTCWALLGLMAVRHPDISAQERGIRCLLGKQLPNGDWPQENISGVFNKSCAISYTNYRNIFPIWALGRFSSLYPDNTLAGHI
Protocol: II. Measuring the in-vivo Activity in the Rat after Oral Administration
Inhibiting the enzyme 2,3-epoxysqualene-lanosterol-cyclase causes an increase in the 2,3-epoxisqualene levels in the liver and plasma. The quantity of 2,3-epoxysqualene formed therefore serves as a direct measurement of the potency on the animal as a whole. The amounts were determined using the method described in J. Lipid. Res. 38, 564-575, [1997] at t=3 or 8 hours after administration of the substance in concentrations of c=0.01, 0.03, 0.1, 0.3 and 1.0 mg/kg. Table 3 which follows gives the results obtained for the abovementioned substances A, B, C, E, G, H, O and R by way of example.
In the control animals there were no measurable 2,3-epoxisqualene levels under these conditions.

Rhod. rubra 49 = assay: Fungistatic activity, series dilution test; assay type: cell-based; conditions: Sabouraud broth, 2 to 4 days at 26° C.
Protocol: (§1) V. Determining the Fungistatic Activity
(§2) The fungistatic activity was determined by the series dilution test (microtitre system). Sabouraud broth was used as the nutrient medium. The inoculum amounted to about 10^4 to 10^5 CFU/ml (CFU=colony-forming units); the incubation period was 2 to 4 days at 26° C.
(§3) The lowest concentration which allows no visible growth (minimum inhibitory concentration MIC) was determined.
(§4) The abovementioned compounds B, E, G, I, K, L, N, Q and R were tested. The MIC is given in μg/ml.

Pen. notatum CBS 19746 = assay: Fungistatic activity, series dilution test; assay type: cell-based; conditions: Sabouraud broth, 2 to 4 days at 26° C.
Protocol: as §1, §2, §3, §4

[3] = system: Sacch. carisbergensis ATCC 9080; assay: Fungistatic activity, series dilution test; assay type: cell-based; conditions: Sabouraud broth, 2 to 4 days at 26° C.
Protocol: as §1, §2, §3, §4

[4] = system: Cand. albicans ATCC 10231; assay: Fungistatic activity, series dilution test; assay type: cell-based; conditions: Sabouraud broth, 2 to 4 days at 26° C.
Protocol: as §1, §2, §3, §4

Asp. niger ATCC 16404 = assay: Fungistatic activity, series dilution test; assay type: cell-based; conditions: Sabouraud broth, 2 to 4 days at 26° C.
Protocol: as §1, §2, §3, §4

[5] = system: Trich. mentagrophytes ATCC 9129; assay: Fungistatic activity, series dilution test; assay type: cell-based; conditions: Sabouraud broth, 2 to 4 days at 26° C.
Protocol: as §1, §2, §3, §4

[6] = Lipid reduction in the normolipaemic golden hamster; assay type: in vivo; conditions: compared with control group
Protocol: III. Lipid Reduction in the Normolipaemic Golden Hamster This was determined using the method described in J. Lipid. Res. 38, 564-575, (1997). At the end of the experiment the total cholesterol, β-lipoprotein-cholesterol and HDL-cholesterol were determined and compared with the values of a control group which were fed without any test substance. The lipid-lowering activity of the abovementioned compounds E, G and I was tested.

[7] = 0.03 mg/kg oral, 3 h after administration
[8] = 0.03 mg/kg oral, 8 h after administration
[9] = 0.1 mg/kg oral, 3 h after administration
[10] = 0.1 mg/kg oral, 8 h after administration
[11] = 0.3 mg/kg oral, 3 h after administration
[12] = 0.3 mg/kg oral, 8 h after administration
[13] = 0.01 mg/kg oral, 3 h after administration
[14] = 0.01 mg/kg oral, 8 h after administration

SMILES | percentage inhibition of 14C-acetate incorporation ([1]; test concentration 10^−8 mol/l) | percentage inhibition of 14C-acetate incorporation ([1]; test concentration 10^−9 mol/l) | 2,3-epoxysqualene concentration in the liver (rat) [2, 7] | 2,3-epoxysqualene concentration in the liver (rat) [2, 8] | 2,3-epoxysqualene concentration in the liver (rat) [2, 9] | 2,3-epoxysqualene concentration in the liver (rat) [2, 10] | 2,3-epoxysqualene concentration in the liver (rat) [2, 11] | 2,3-epoxysqualene concentration in the liver (rat) [2, 12] | MIC Rhod. (Rhod. rubra 49) | MIC Pen. (Pen. notatum CBS 19746) | MIC Sacc. [3] | MIC Cand. [4] | MIC Asp. (Asp. niger ATCC 16404) | MIC Trich. [5] | IC50 [1] | 2,3-epoxysqualene concentration in the liver (rat) [2, 13] | 2,3-epoxysqualene concentration in the liver (rat) [2, 14] | further results
CN(C)Cc1ccc([C@H]2CC[C@H](N(C)C(=S)SCc3cccc(F)c3)CC2)cc1.Cl [B, trans-S-(3-fluorobenzyl)-N-4-[4-(dimethylaminomethyl)-phenyl]cyclohexyl-N-methyldithiocarbamate-hydrochloride] | −85% | −59% | 24.5 µg/g | 57.1 µg/g | 96.0 µg/g | 150.9 µg/g | 98.5 µg/g | 234.5 µg/g | 2 µg/mL | 2 µg/mL | 8 µg/mL | 2 µg/mL | 2 µg/mL | 1 µg/mL |  |  |  | 
CN(C)Cc1ccc([C@H]2CC[C@H](N(C)C(=S)Oc3ccc(Cl)cc3)CC2)cc1.Cl [G, trans-O-(4-chlorophenyl)-N-4-[4-(dimethylaminomethyl)-phenyl]cyclohexyl-N-methylthiocarbamate-hydrochloride] | −85% | −43% | 12.8 µg/g | 42.3 µg/g | 66.2 µg/g | 115.3 µg/g | 57.5 µg/g | 225.5 µg/g | 8 µg/mL | 1 µg/mL | 32 µg/mL | 4 µg/mL | 4 µg/mL | 1 µg/mL | 400 pM | 5.2 µg/g | 30.1 µg/g | HDL-cholesterol ([6]; dose 0.5 mg/kg/day): −21.1%; Total cholesterol ([6]; dose 0.5 mg/kg/day): −27.7%; β-Lipoprotein-cholesterol ([6]; dose 0.5 mg/kg/day): −40.2%; HDL-cholesterol ([6]; dose 1.5 mg/kg/day): −26.5%; Total cholesterol ([6]; dose 1.5 mg/kg/day): −31.1%; β-Lipoprotein-cholesterol ([6]; dose 1.5 mg/kg/day): −42.2%; HDL-cholesterol ([6]; dose 4.9 mg/kg/day): −24.3%; Total cholesterol ([6]; dose 4.9 mg/kg/day): −26.5%; β-Lipoprotein-cholesterol ([6]; dose 4.9 mg/kg/day): −33.2%
CN(C(=O)Oc1ccc(Cl)cc1)[C@H]1CC[C@H](c2ccc(CN3CCCCC3)cc2)CC1.Cl [I, trans-O-(4-chlorophenyl)-N-methyl-N-4-[4-(piperidinomethyl)phenyl]cyclohexylcarbamate-hydrochloride] | −83% | −43% |  |  |  |  |  |  | 64 µg/mL | 64 µg/mL | 64 µg/mL | 64 µg/mL | 256 µg/mL | 8 µg/mL |  |  |  | HDL-cholesterol ([6]; dose 0.46 mg/kg/day): −3.3%; Total cholesterol ([6]; dose 0.46 mg/kg/day): −16.1%; β-Lipoprotein-cholesterol ([6]; dose 0.46 mg/kg/day): −26.2%; HDL-cholesterol ([6]; dose 1.34 mg/kg/day): −5.0%; Total cholesterol ([6]; dose 1.34 mg/kg/day): −20.2%; β-Lipoprotein-cholesterol ([6]; dose 1.34 mg/kg/day): −33.7%; HDL-cholesterol ([6]; dose 4.89 mg/kg/day): −16.2%; Total cholesterol ([6]; dose 4.89 mg/kg/day): −25.7%; β-Lipoprotein-cholesterol ([6]; dose 4.89 mg/kg/day): −36.1%
C#CCN(C)Cc1ccc([C@H]2CC[C@H](N(C)C(=O)Oc3ccc(Cl)cc3)CC2)cc1 [N, trans-O-(4-chlorophenyl)-N-methyl-N-4-[4-(N-methyl-N-propargylaminomethyl)phenyl]cyclohexylcarbamate] | −90% | −75% |  |  |  |  |  |  | 16 µg/mL (≈ 37.6 µM) | 8 µg/mL (≈ 18.8 µM) | 64 µg/mL (≈ 151 µM) | 8 µg/mL (≈ 18.8 µM) | >512 µg/mL | 8 µg/mL (≈ 18.8 µM) |  |  |  | 
Cc1ccc(OC(=S)N(C)[C@H]2CC[C@H](c3ccc(CN4CCCCC4)cc3)CC2)cc1.Cl [Q, trans-N-Methyl-O-(4-methylphenyl)-N-4-[4-(piperidinomethyl)phenyl]cyclohexylthiocarbamate-hydrochloride] | −79% | −51% |  |  |  |  |  |  | 8 µg/mL | 64 µg/mL | 32 µg/mL | 16 µg/mL | 128 µg/mL | 2 µg/mL |  |  |  | 
CN(C)Cc1ccc([C@H]2CC[C@H](N(C)C(=O)Oc3ccc(F)cc3)CC2)cc1.Cl [R, trans-N-4-[4-(dimethylaminomethyl)phenyl]cyclohexyl-O-(4-fluorophenyl)-N-methylcarbamate-hydrochloride] | −86% | −63% | 38.2 µg/g | 67.2 µg/g | 53.8 µg/g | 152.9 µg/g | 79.7 µg/g | 191.0 µg/g | 16 µg/mL | 16 µg/mL | 512 µg/mL | 64 µg/mL | 16 µg/mL | 2 µg/mL | 500 pM | 5.1 µg/g | 25.6 µg/g | 2,3-epoxysqualene concentration in the liver (rat) ([2]; 1.0 mg/kg oral, 3 h after administration): 106.2 µg/g; 2,3-epoxysqualene concentration in the liver (rat) ([2]; 1.0 mg/kg oral, 8 h after administration): 340.0 µg/g; HDL-cholesterol ([6]; dose 1.73 mg/kg/day): −19.7%; Total cholesterol ([6]; dose 1.73 mg/kg/day): −16.5%; β-Lipoprotein-cholesterol ([6]; dose 1.73 mg/kg/day): −14.3%; HDL-cholesterol ([6]; dose 6.37 mg/kg/day): −20.0%; Total cholesterol ([6]; dose 6.37 mg/kg/day): −27.8%; β-Lipoprotein-cholesterol ([6]; dose 6.37 mg/kg/day): −34.3%
